*1 amine or outer side, *2 acyl side, *3 side chain or, on linkers, in order; H or OH if unused. Where a SMILES comes first, the peptide text is derived from it. Bridges are numbered along the chain shown (N, C = ends). Roman numbers before positions name the chains, in order. [ ]: non-standard residue; d: D form. Actinocin(9to1) = Cc1c2oc3c(C)ccc(C(=O)[*:1])c3nc-2c(C(=O)[*:2])c(N)c1=O; NMeV = CN[C@H](C(=O)O)C(C)C; Sar = CNCC(=O)O
Legend:
Assay type in all cases: cell-based, human
[1] = test system: HUVEC tube formation; assay: Endothelial tube assay (number of tubes, three-dimensional collagen gels); settings: for IC50: Homo sapiens, HUVEC in collagen gels with bFGF, VEGF and PMA, tubes counted at 48 hr, read-out: inhibition of tube formation, IC50; for inhibition of tube formation (FIG. 3B): at 100 μM; for formation of tube-like structures: endothelial cells in three-dimensional type I collagen lattice
Description: In this model, endothelial cells are suspended in a three-dimensional collagen lattice of type I collagen and undergo rapid morphogenesis. Within 4 hr numerous vacuoles are observed in the majority of endothelial cells; at 24 hr the formation of tube-like structures can be observed and at 48 hr an interconnected network of tube-like structures is observed.
Collagen gels were formed by mixing together ice-cold gelatin solution (10× M199, H2O, 0.53M NaHCO3, 200 mM L-glutamine, type I collagen, 0.1M NaOH, 100:27.2:50:10:750:62.5 by volume) and cells in 1× basal medium at a concentration of 3×10^6 cells/ml at a ratio of 4 volumes gelatin solution: 1 volume of cells. After gelation at 37 for 30 min, the gels were overlaid with IX basal medium consisting of M199 supplemented with 1%FBS, 1× ITS, 2 mM L-glutamine, 50 μg/ml ascorbic acid, 26.5 mM NaHCO3, 100 U/ml penicillin and 100 U/mil streptomycin supplemented with 40 ng/ml BFGF, 40 ng/ml VEGF and 80 nM phorbol myristate acetate (PMA). All drugs were added to the IX basal medium immediately after gelation. To quantitate tube formation, the number of tubes per high power (20× field) was determined 48 hr after addition of the basal medium Five independent fields separated by 100 μm optical sections were assessed for each well. Cytotoxicity was assessed using an XTT kit from Boehringer Mannheim (Indianapolis, Ind.).

[2] = test system: HUVEC proliferation; assay: Proliferation assay (BrdU incorporation); settings: type I collagen-coated surface, VEGF, bFGF and PMA
Description: Cells were cultured in above medium in the presence of drugs or vehicle for 4 hr. 5 μl (100 μM) of 5′-bromo-2′-deoxyuridine (BrdU) was added in a final volume of 100 μl/well and cells were incubated for another 20 hr. BrdU incorporation was evaluated by an ELISA kit from Boehringer Mannheim (Indianapolis, Ind.).

[3] = test system: HUVEC tube formation; assay: Endothelial tube assay of Example 7 (average tube length, 3-D type I collagen gels)
Description: Collagen gels were formed by mixing together ice-cold gelation solution (IOX M199, H2O, 0.53M NaHCO3, 200 mM L-glutamine, type I collagen, 0.1M NaOH, 100:27.2:50:10:750:62.5 by volume) and cells in 1× basal medium (see below) at a concentration of 3×10^6 cells/ml at a ratio of 4 volumes gelation solution: 1 volume of cells (18). After gelation at 37° C. for 30 min, the gels were overlaid with 1× basal medium consisting of M199 supplemented with […], 1× ITS, 2 mM L-glutamine, […] ascorbic acid, 26.5 mM NaHCO3, 100 U/ml penicillin and 100 U/ml streptomycin supplemented with 40 ng/ml bFGF, 40 ng/ml VEGF, 80 nM PMA or the combination of PMA (80 nM), bFGF and VEGF (40 ng/ml each). All drugs were added to the 1× basal medium immediately after gelation. To quantify tube formation, the average tube length was determined by measuring total tube length (long axis) in three consecutive layers of a low power (10×) field using Openlab software (Improvision Inc, England). Each layer was separated by 100 μm.

[4] = test system: MMP-9 mRNA; assay: Real time RT-PCR (Taqman) assay in HUVEC, Example 7; settings: for MMP-9 mRNA levels: 40 ng/ml, at 4 h and 24 h
Description: (§1) Total RNA was extracted from HUVEC cultured in 3-D type I collagen gels for various times in 1× basal medium supplemented with 40 ng/ml bFGF, 40 ng/ml VEGF, […] PMA or the combination of PMA (80 nM), bFGF and VEGF (40 ng/mil each). […] For all mRNAs evaluated a sample of total RNA (100 ng) was added to a 50 μl RT-PCR reaction mixture according to the manufacturer's protocol (Roche Molecular Systems, Inc., Branchburg, N.J.). The thermal cycling conditions included 1 cycle at 48° C. for 30 min, 1 cycle at 95° C. for 10 min, 40 cycles at 95° C. for 15 s, at 60° C. for 1 min, and finally hold at 25° C. for 2 min. Standard curves for expression of each gene were generated by serial dilution of the total RNA isolated from U937 cells. […] Therefore, the relative mRNA expression of each gene was normalized to the level of GAPDH in the same RNA preparation.

[5] = test system: MMP-2 secretion; assay: Zymographic assay of HUVEC conditioned media
Description: (§2) The presence of gelatinases MMP-2 and -9 in conditioned media from cultured HUVEC in 3-D type I collagen gels was analyzed by zymography. Media from different treatments or from different time points were concentrated and then 10 μl aliquots were mixed with 2 × sample buffer without reducing agent or heating. Samples were loaded on a 10% polyacrilamide gel containing 0.1% gelatin (Novex, San Diego, Calif.) for electrophoresis. In addition to using regular molecular weight markers the MMP-2 and -9 zymographic standards (Chemicon, Temecula, Calif.) were used as standards for gelatinases. The gels were incubated for 30 min at room temperature in renaturing buffer and in developing buffer for overnight at 37° C., and then stained with 0.25% Coomassie brilliant blue (Sigma). Gelatinase activity was identified as lightly stained or clear bands following destaining.

[6] = test system: MMP-9 secretion; assay: Zymographic assay of HUVEC conditioned media
Description: as §2

[7] = test system: MMP-2 mRNA; assay: Real time RT-PCR (Taqman) assay in HUVEC, Example 7; settings: 100 μM; 24 h
Description: as §1

[8] = at concentrations of up to 100 μM
[9] = PMA 0.8, 8, 80 and 800 nM for 24 h

Cc1c(C)c2c(c(C)c1O)CCC(C)(COc1ccc(CC3SC(=O)NC3=O)cc1)O2 (single isomer, unassigned; (+)) [troglitazone, (+)-5-[[4-[(3,4-dihydro-6-hydroxy-2,5,7,8-tetramethyl-2H-1-benzopyran-2-yl)methoxy]phenyl]methyl]-2,4-thiazolidinedione]
IC50 [1]: 6.2 µM

CC1=C(/C=C/C(C)=C\C=C\C(C)=C\C(=O)O)C(C)(C)CCC1 [9-cis-retinoic acid]
effect on tube formation ([1]; 9-cis-retinoic acid 30 μM alone): no significant effect

CN(CCOc1ccc(CC2SC(=O)NC2=O)cc1)c1ccccn1 (stereo not shown) [BRL49653, 5-[4-[2-[N-methyl-N-(2-pyridyl)amino]ethoxy]benzyl]thiazolidine-2,4-dione]
IC50 ([2]; Homo sapiens, HUVEC, read-out: inhibition of endothelial cell (HUVEC) proliferation, IC50): 15.7 µM

CCCc1c(OCCCCc2nnn[nH]2)ccc(C(C)=O)c1O [LY 171883]
inhibition of tube formation (FIG. 3B) [1]: do not inhibit
inhibition of tube formation [1, 8]: did not significantly inhibit

CCCCC[C@H](O)/C=C/[C@H]1[C@H](O)CC(=O)[C@@H]1CCCCCCC(=O)O [PGE1]
effect on HUVEC proliferation [2]: did not affect

CCCCC[C@H](O)/C=C/[C@H]1[C@H](O)CC(=O)[C@@H]1C/C=C\CCCC(=O)O [PGE2]
effect on HUVEC proliferation [2]: did not affect

CCCCCCCCCCCCCC(=O)O[C@@H]1[C@@H](C)[C@@]2(O)[C@@H](C=C(CO)C[C@]3(O)C(=O)C(C)=C[C@@H]23)[C@@H]2C(C)(C)[C@]12OC(C)=O [PMA, phorbol 12-myristate 13-acetate]
concentration giving maximal induction of tube formation [3, 9]: 80 nM
tube formation (average tube length) [3, 9]: dose-dependent increase
increase of MMP-9 mRNA levels between 24 h and 4 h ([4]; HUVEC in 3-D collagen gels, PMA 80 nM, bFGF and VEGF 40 ng/ml each): more than 2 fold
MMP-2 secretion into the culture medium [5, 9]: dose-dependent stimulation
active MMP-2 in supernatants compared with either growth factor alone ([5]; gelatin zymography, PMA in the absence or presence of FGF and VEGF): more active MMP-2
MMP-9 secretion into the culture medium [6, 9]: dose-dependent stimulation
zymogen form of MMP-9 (92 kD) in culture supernatants ([6]; gelatin zymography, PMA or PMA in combination with bFGF and VEGF): detected

Cc1cccc(Nc2cc(Cl)nc(SCC(=O)O)n2)c1C [WY 14643]
inhibition of tube formation (FIG. 3B) [1]: do not inhibit
inhibition of tube formation [1, 8]: did not significantly inhibit
HUVEC tube formation ([3]; 100 μM, 3-D collagen gels): do not inhibit
MMP-2 mRNA expression [7]: did not alter
MMP-9 mRNA expression ([4]; 100 μM, 24 h): did not alter
MMP-2 protein secretion ([5]; 100 μM, 24 h): did not alter
MMP-9 protein secretion ([6]; 100 μM, 24 h): did not alter

Cc1c2oc3c(C)ccc(C(=O)N[C@@H]4C(=O)N[C@H](C(C)C)C(=O)N5CCC[C@H]5C(=O)N(C)CC(=O)N(C)[C@@H](C(C)C)C(=O)O[C@@H]4C)c3nc-2c(C(=O)N[C@@H]2C(=O)N[C@H](C(C)C)C(=O)N3CCC[C@H]3C(=O)N(C)CC(=O)N(C)[C@@H](C(C)C)C(=O)O[C@@H]2C)c(N)c1=O [actinomycin D] (I: T[dV]P[Sar][NMeV] / II: T[dV]P[Sar][NMeV]; ester I:1-I:C, II:1-II:C; linker I:N-II:N via Actinocin(9to1))
formation of tube-like structures [1]: completely block

CC1(COc2ccc(CC3SC(=O)NC3=O)cc2)CCCCC1 (stereo not shown) [ciglitizone]
IC50 [1]: 2.7 µM

C[C@@H]1C[C@@H]([C@H](O)CC2CC(=O)NC(=O)C2)C(=O)[C@@H](C)C1 [cycloheximide]
formation of tube-like structures [1]: completely block

CCCCCCCC/C=C\CCCCCCCCCCCC(=O)O [erucic acid]
inhibition of tube formation ([1]; 200 μM): did not significantly inhibit
inhibition of tube formation (FIG. 3B) [1]: do not inhibit

VEGF
MMP-9 mRNA levels [4]: at or below the limits of detection

bFGF: recombinant basic fibroblast growth factor
MMP-9 mRNA levels [4]: at or below the limits of detection

Source: patent US20010036955A1, “Method of inhibiting angiogenesis” (Genentech, Inc., priority 1998, published 2001)
